Test results taken from paper PMC11784839, “Monoaminergic neurotransmitters are bimodal effectors of tau aggregation” (Science Advances, 2025).

Biological target: tau (Homo sapiens, UniProt P10636)
Test: MCE Phenols Library screening, tau biosensor cell seeding assay (AvZ)
Type: cell-based
Conditions: for Z repl 1 / Z Repl 2: Z score; for Z repl 1 / raw data 1: replicate 1; for Z Repl 2 / raw data 2: replicate 2; for AvZ (average z score of seeding, SDs from the mean level of seeding): 10 μM phenol in cell cultures, AD brain homogenate preincubated 16 hours, two biological replicates, positive = catalyzes seeding, negative = inhibits
[1] = average Z score of the two replicates, MCE Phenols Library screen
[2] = average puncta of the two replicates
[3] = average Z score of two replicates, Phenols Library screen
[4] = average Z score of the two replicates, tau biosensor seeding, MCE Phenols Library screen
[5] = average Z score of the two replicates, tau seeding

tau, sequence (P10636 623-695 limits assumed): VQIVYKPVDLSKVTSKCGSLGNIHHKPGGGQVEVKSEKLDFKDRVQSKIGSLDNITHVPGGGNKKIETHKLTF

## Oc1ccc2c(c1)OCO2 [Sesamol]
  Z repl 1: -0.018
  Z Repl 2: -1.03
[1]
  av Z: -0.524
[2]
  av puncta: 13948.1
puncta
  raw data 1: 26133.2
  raw data 2: 1763.04

## CC(C)=CCc1c(O)cc2oc3cc(O)c(O)c(CC=C(C)C)c3c(=O)c2c1O [Gamma-Mangostin]
  Z repl 1: -0.442
  Z Repl 2: -0.111
[1]
  av Z: -0.277
[2]
  av puncta: 16310.3
Raw puncta
  raw data 1: 21043.4
  raw data 2: 11577.2

## COc1cc(C)c2c(=O)cc(C[C@@H](C)O)oc2c1[C@@H]1O[C@H](CO)[C@@H](O)[C@H](O)[C@H]1OC(=O)/C=C/c1ccc(O)cc1 [Aloeresin D]
  Z repl 1: -0.796
  Z Repl 2: -0.937
[1]
  av Z: -0.867
Average of raw data 1 and 2
  av puncta: 9774.18
puncta
  raw data 1: 16789.2
  raw data 2: 2759.19

## O=C(/C=C/c1ccc(O)c(O)c1)c1ccc(O)cc1O [Butein]
  Z repl 1: -0.211
  Z Repl 2: 0.15
[3]
  av Z: -0.031
Average of raw data 1 and 2
  av puncta: 19090.8
puncta
  raw data 1: 23813.7
  raw data 2: 14367.8

## O=c1oc2cc(O)ccc2c2cc(O)c(O)cc12 [Urolithin C]
  Z repl 1: -0.755
  Z Repl 2: -0.316
[1]
  av Z: -0.535
[2]
  av puncta: 13342.4
puncta
  raw data 1: 17290
  raw data 2: 9394.79

## COc1cc(/C=C/C(=O)O[C@H]2[C@H](O)[C@@H](CO)O[C@@]2(CO)O[C@H]2O[C@H](CO)[C@@H](O)[C@H](O)[C@H]2O)ccc1O [Sibiricose A5]
  Z repl 1: -0.765
  Z Repl 2: -0.196
[1]
  av Z: -0.481
[2]
  av puncta: 13916.2
puncta
  raw data 1: 17163.5
  raw data 2: 10668.8

## COc1cccc(OC)c1C(=O)OCc1cc(O)ccc1O[C@@H]1O[C@H](CO)[C@@H](O)[C@H](O)[C@H]1O [Curculigoside]
  Z repl 1: -0.772
  Z Repl 2: 0.136
[1]
  av Z: -0.318
[2]
  av puncta: 15649.1
Raw puncta
  raw data 1: 17078.1
  raw data 2: 14220.1

## N#CCc1ccc(O)cc1 [4-Hydroxybenzyl cyanide]
  AvZ (average z score of seeding, SDs from the mean level of seeding): -0.064
  Z repl 1: 0.423
  Z Repl 2: -0.552
Average of raw data 1 and 2
  av puncta: 19148.8
puncta
  raw data 1: 31425.1
  raw data 2: 6872.51

## O=C(/C=C/c1ccc(O)c(O)c1)O[C@@H]1C[C@](O)(C(=O)O)C[C@@H](OC(=O)/C=C/c2ccc(O)c(O)c2)[C@H]1O [Isochlorogenic acid A]
  Z repl 1: -0.182
  Z Repl 2: 0.275
[3]
  av Z: 0.046
Average of raw data 1 and 2
  av puncta: 19930.3
puncta
  raw data 1: 24161.4
  raw data 2: 15699.2

## COc1cc(/C=C/C(=O)O[C@H]2[C@H](O)C[C@](O)(C(=O)O)C[C@H]2O)ccc1O [4-Feruloylquinic acid]
  Z repl 1: -1.622
  Z Repl 2: -0.646
[1]
  av Z: -1.134
Average of raw data 1 and 2
  av puncta: 6372.47
puncta
  raw data 1: 6875.06
  raw data 2: 5869.87

## COc1cc(/C=C/COC(=O)/C=C/c2ccc(O)c(OC)c2)ccc1O [Coniferyl ferulate]
  Z repl 1: 0.368
  Z Repl 2: -0.434
[3]
  av Z: -0.033
Average of raw data 1 and 2
  av puncta: 19449.2
puncta
  raw data 1: 30768
  raw data 2: 8130.42

## COc1ccc2c(c1O)-c1c(OC)c(OC)cc3c1[C@H](C2)N(C)CC3 [Isocorydine]
  Z repl 1: -0.45
  Z Repl 2: -0.651
[1]
  av Z: -0.55
[2]
  av puncta: 13380.4
puncta
  raw data 1: 20943.6
  raw data 2: 5817.19

## O=C(O)Cc1cc(I)c(Oc2cc(I)c(O)c(I)c2)c(I)c1 [Tetrac]
  Z repl 1: 0.158
  Z Repl 2: -0.425
[3]
  av Z: -0.133
Average of raw data 1 and 2
  av puncta: 18236.7
puncta
  raw data 1: 28241.9
  raw data 2: 8231.59

## COc1cc2c(=O)c(-c3ccc(O)cc3)coc2cc1O [Glycitein]
  Z repl 1: 0.123
  Z Repl 2: -0.524
[1]
  av Z: -0.2
[2]
  av puncta: 17498.7
Raw puncta
  raw data 1: 27830.8
  raw data 2: 7166.64

## Corylin
  Z repl 1: -0.181
  Z Repl 2: -0.689
[1]
  av Z: -0.435
[2]
  av puncta: 14787.4
Raw puncta
  raw data 1: 24170.2
  raw data 2: 5404.62

## COc1cc(/C=C/C(=O)OCC2OC(OC3(CO)OC(CO)C(O)C3OC(=O)/C=C/c3cc(OC)c(O)c(OC)c3)C(O)C(O)C2O)cc(OC)c1O (stereo not shown) [(E)-3',6-Disinapoylsucrose]
  Z repl 1: 0.224
  Z Repl 2: -0.662
[1]
  av Z: -0.219
[2]
  av puncta: 17367.3
Raw puncta
  raw data 1: 29041
  raw data 2: 5693.57

## O=C(O[C@@H]1Cc2c(O)cc(O)cc2O[C@@H]1c1cc(O)c(O)c2c(=O)c(O)cc([C@H]3Oc4cc(O)cc(O)c4C[C@H]3O)cc12)c1cc(O)c(O)c(O)c1 [Theaflavin-3'-gallate]
  Z repl 1: -2.15
  Z Repl 2: -1.186
Average of raw data 1 and 2
  av puncta: 320.554
puncta
  raw data 1: 542.499
  raw data 2: 98.608

## Cc1ccc(O)c(O)c1 [4-Methylcatechol]
  AvZ (average z score of seeding, SDs from the mean level of seeding): -1.257
  Z repl 1: -1.54
  Z Repl 2: -0.975
Average of raw data 1 and 2
  av puncta: 5109.52
puncta
  raw data 1: 7864.83
  raw data 2: 2354.22

## O=C(/C=C/c1ccc(O)c(O)c1)O[C@@H]1C[C@](O)(C(=O)O)C[C@@H](O)[C@H]1O [Chlorogenic acid]
  Z repl 1: 0.232
  Z Repl 2: -0.247
[3]
  av Z: -0.007
Average of raw data 1 and 2
  av puncta: 19631.7
puncta
  raw data 1: 29136
  raw data 2: 10127.4

## Myricitrin
  Z repl 1: -0.619
  Z Repl 2: -1.178
[1]
  av Z: -0.899
Average of raw data 1 and 2
  av puncta: 9550.45
puncta
  raw data 1: 18913
  raw data 2: 187.899

## COc1ccc(-c2coc3cc(O)ccc3c2=O)cc1O [Calycosin]
  Z repl 1: 0.387
  Z Repl 2: -0.53
[3]
  av Z: -0.072
Average of raw data 1 and 2
  av puncta: 19046
puncta
  raw data 1: 30989.7
  raw data 2: 7102.22

## COc1c(O)cc(O)c2c(=O)cc(-c3ccccc3)oc12 [Wogonin]
  Z repl 1: 0.851
  Z Repl 2: 1.113
[4]
  av Z: 0.982
Average of raw data 1 and 2
  av puncta: 30607.4
puncta
  raw data 1: 36560.6
  raw data 2: 24654.2

## CC(=O)c1c(C)cc2cccc(O)c2c1O [Nepodin]
  Z repl 1: -0.364
  Z Repl 2: 0.129
[3]
  av Z: -0.118
Average of raw data 1 and 2
  av puncta: 18059
puncta
  raw data 1: 21978.8
  raw data 2: 14139.2

## COc1ccc(-c2oc3c(CC=C(C)C)c(O[C@@H]4O[C@H](CO)[C@@H](O)[C@H](O)[C@H]4O)cc(O)c3c(=O)c2O[C@@H]2O[C@@H](C)[C@H](O)[C@@H](O)[C@H]2O[C@@H]2OC[C@@H](O)[C@H](O)[C@H]2O)cc1 [Epimedin B]
  Z repl 1: 0.357
  Z Repl 2: 0.482
[5]
  av Z: 0.42
Average of raw data 1 and 2
  av puncta: 24278.7
puncta
  raw data 1: 30639
  raw data 2: 17918.4

## COc1ccc(-c2oc3c(CC=C(C)C)c(O[C@@H]4O[C@H](CO)[C@@H](O)[C@H](O)[C@H]4O)cc(O)c3c(=O)c2O[C@@H]2O[C@@H](C)[C@H](O)[C@@H](O)[C@H]2O)cc1 [Icariin]
  Z repl 1: 0.381
  Z Repl 2: 0.569
[5]
  av Z: 0.475
Average of raw data 1 and 2
  av puncta: 24883.3
puncta
  raw data 1: 30921.9
  raw data 2: 18844.8

## COc1cc(O)c2c(=O)c(OC)c(-c3ccc(OC)c(OC)c3)oc2c1 [Retusin]
  Z repl 1: -0.575
  Z Repl 2: -0.37
[1]
  av Z: -0.472
[2]
  av puncta: 14132.2
puncta
  raw data 1: 19450.4
  raw data 2: 8814.06

## O=C(O[C@@H]1Cc2c(O)cc(O)cc2O[C@@H]1c1ccc(O)c(O)c1)c1cc(O)c(O)c(O)c1 [(-)-Epicatechin gallate]
  Z repl 1: -1.161
  Z Repl 2: -0.434
[1]
  av Z: -0.797
Average of raw data 1 and 2
  av puncta: 10272.2
puncta
  raw data 1: 12408.5
  raw data 2: 8135.9

## Oc1ccc2c(c1)OC[C@]1(O)Cc3cc(O)c(O)cc3[C@H]21 [Brazilin]
  Z repl 1: -0.564
  Z Repl 2: -0.743
[1]
  av Z: -0.654
[2]
  av puncta: 12203.7
puncta
  raw data 1: 19572.7
  raw data 2: 4834.73

## O=c1cc(-c2ccccc2)oc2c(O)c(O)ccc12 [7,8-Dihydroxyflavone]
  Z repl 1: 1.412
  Z Repl 2: 0.928
[4]
  av Z: 1.17
Average of raw data 1 and 2
  av puncta: 32989.2
puncta
  raw data 1: 43302.3
  raw data 2: 22676

## COC(=O)c1c(C)cc(OC(=O)c2c(C)cc(O)c(C=O)c2O)c(C)c1O [Atranorin]
  Z repl 1: -0.357
  Z Repl 2: -0.801
[1]
  av Z: -0.579
[2]
  av puncta: 13136.9
puncta
  raw data 1: 22066.2
  raw data 2: 4207.53

## O=C(O)c1ccc(O)cc1 [4-Hydroxybenzoic acid]
  AvZ (average z score of seeding, SDs from the mean level of seeding): -0.554
  Z repl 1: -0.323
  Z Repl 2: -0.785
[2]
  av puncta: 13431
puncta
  raw data 1: 22475.3
  raw data 2: 4386.59

## Oc1cc(O)cc(/C=C/c2ccc(O)c(O)c2)c1 [Piceatannol]
  Z repl 1: -1.302
[1]
  av Z: -1.235
Average of raw data 1 and 2
  av puncta: 5506.01
puncta
  raw data 1: 10717.8
  raw data 2: 294.245

## Cc1cc(=O)oc2cc(O)cc(O)c12 [5,7-Dihydroxy-4-methylcoumarin]
  Z repl 1: 0.623
  Z Repl 2: -0.301
[5]
  av Z: 0.161
Average of raw data 1 and 2
  av puncta: 21685.4
puncta
  raw data 1: 33822.8
  raw data 2: 9548.03

## CCCOC(=O)c1cc(O)c(O)c(O)c1 [Propyl gallate]
  AvZ (average z score of seeding, SDs from the mean level of seeding): -0.849
  Z repl 1: -0.716
  Z Repl 2: -0.982
Average of raw data 1 and 2
  av puncta: 10013.9
puncta
  raw data 1: 17751.7
  raw data 2: 2276.1
